Laboratory results from the supplement of paper PMC10307832.

Experiments:
Test in all cases: relative viability (nuclei count vs DMSO), 5 days (fraction); higher = more cells survive
Docetaxel = compound: CC(=O)O[C@@]12CO[C@@H]1C[C@H](O)[C@@]1(C)C(=O)[C@H](O)C3=C(C)[C@@H](OC(=O)[C@H](O)[C@@H](NC(=O)OC(C)(C)C)c4ccccc4)C[C@@](O)([C@@H](OC(=O)c4ccccc4)[C@H]21)C3(C)C [Docetaxel]
In short: (§1)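 Viability was read as treated-well nuclei divided by vehicle-well nuclei, using the median across plates. Lung cancer cell lines in 1536-well plates were kept overnight at 37 °C, pinned with five √10-spaced library-drug doses, and after 5 days were Hoechst-stained, imaged at 4× and counted in MetaXpress. Plates passed only with control CV below 25% and at least one doubling.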

Tivozanib = compound: COc1cc2nccc(Oc3ccc(NC(=O)Nc4cc(C)on4)c(Cl)c3)c2cc1OC [Tivozanib]
In short: as §1

[1] = compound: Cc1cnc(-c2cnc(NCCNc3ccc(C#N)cn3)nc2-c2ccc(Cl)cc2Cl)[nH]1
In short: as §1

JQ1 = compound: Cc1sc2c(c1C)C(c1ccc(Cl)cc1)=N[C@@H](CC(=O)OC(C)(C)C)c1nnc(C)n1-2 [JQ1]
In short: as §1

Cytarabine = compound: Nc1ccn([C@@H]2O[C@H](CO)[C@@H](O)[C@@H]2O)c(=O)n1 [Cytarabine]
In short: as §1

CPI-613 = compound: O=C(O)CCCCC(CCSCc1ccccc1)SCc1ccccc1 [CPI-613]
In short: as §1

Pimozide = compound: O=c1[nH]c2ccccc2n1C1CCN(CCCC(c2ccc(F)cc2)c2ccc(F)cc2)CC1 [Pimozide]
In short: as §1

Row | Cell Line | relative viability (Docetaxel; 0.0002 µM) | relative viability (Docetaxel; 0.000632 µM) | relative viability (Docetaxel; 0.002 µM) | relative viability (Docetaxel; 0.006325 µM) | relative viability (Docetaxel; 0.02 µM) | relative viability (Tivozanib; 0.005 µM) | relative viability (Tivozanib; 0.01581 µM) | relative viability (Tivozanib; 0.05 µM) | relative viability (Tivozanib; 0.1581 µM) | relative viability (Tivozanib; 0.5 µM) | relative viability ([1]; 0.08 µM) | relative viability ([1]; 0.253 µM) | relative viability ([1]; 0.8 µM) | relative viability ([1]; 2.53 µM) | relative viability (JQ1; 0.04 µM) | relative viability (JQ1; 0.1265 µM) | relative viability (JQ1; 0.4 µM) | relative viability (JQ1; 1.265 µM) | relative viability (JQ1; 4 µM) | relative viability (Cytarabine; 0.005 µM) | relative viability (Cytarabine; 0.01581 µM) | relative viability (Cytarabine; 0.05 µM) | relative viability (Cytarabine; 0.1581 µM) | relative viability (Cytarabine; 0.5 µM) | relative viability (CPI-613; 5 µM) | relative viability (CPI-613; 15.81 µM) | relative viability (CPI-613; 50 µM) | relative viability (CPI-613; 158.11 µM) | relative viability (CPI-613; 500 µM) | relative viability (Pimozide; 0.08 µM) | relative viability (Pimozide; 0.253 µM) | relative viability (Pimozide; 0.8 µM) | relative viability (Pimozide; 2.53 µM) | relative viability (Pimozide; 8 µM)
1 | NCI-H1755 | 0.984 | 0.941 | 0.724 | 0.459 | 0.411 | 0.991 | 0.961 | 1.01 | 1.02 | 0.917 | 1.04 | 0.831 | 1.03 | 1.08 | 0.984 | 0.819 | 1.04 | 0.966 | 0.836 | 1.04 | 0.97 | 0.864 | 0.548 | 0.404 | 0.937 | 0.958 | 0.942 | 0.973 | 0.49 | 0.916 | 0.967 | 0.946 | 0.929 | 0.892
2 | NCI-H1792 | 0.715 | 0.677 | 0.291 | 0.213 | 0.131 | 0.893 | 0.912 | 1.11 | 0.51 | 0.762 | 1.02 | 0.793 | 0.923 | 0.951 | 0.801 | 0.605 | 0.844 | 0.408 | 0.156 | – | 0.908 | 0.45 | 0.411 | 0.231 | 0.896 | 0.793 | 0.956 | 0.651 | 0.511 | 0.936 | 0.843 | 0.62 | 0.81 | 0.763
3 | NCI-H1793 | 1.01 | 0.852 | 0.351 | 0.285 | 0.186 | 0.84 | 0.787 | 0.952 | – | 0.977 | 1.07 | 0.879 | 0.876 | 1.02 | 0.802 | 0.785 | 0.674 | 0.778 | 0.78 | 0.958 | 0.884 | 0.818 | 0.691 | 0.521 | 0.854 | 0.705 | 0.994 | 0.494 | 0.0301 | 0.746 | 0.846 | 0.675 | 0.947 | 0.711
4 | NCI-H1915 | 0.986 | 0.943 | 0.326 | 0.262 | 0.16 | 0.959 | 0.971 | 0.984 | 0.896 | 0.75 | 1.02 | – | 0.973 | 0.919 | 0.975 | 0.702 | 0.904 | 0.427 | 0.269 | 0.916 | 0.916 | 0.854 | 0.609 | 0.503 | 1.01 | 0.996 | 0.97 | 0.949 | 0.0528 | 0.972 | 0.919 | 0.631 | 0.928 | 0.925
5 | NCI-H1944 | 0.948 | 1 | 0.822 | 0.336 | 0.173 | 0.925 | 0.998 | 0.949 | 0.849 | 0.978 | 1.09 | – | 1.01 | 0.916 | 0.951 | 0.709 | 0.612 | 0.53 | 0.485 | 0.654 | 0.481 | 0.381 | 0.23 | 0.159 | 0.918 | 0.922 | 0.947 | 0.712 | 0.51 | 0.925 | 0.877 | 0.698 | 0.795 | 0.944
6 | NCI-H1975 | 0.916 | 0.702 | 0.344 | 0.213 | 0.168 | 0.842 | 0.922 | 0.991 | 0.852 | 0.786 | 0.859 | 0.888 | 0.813 | 0.647 | 0.953 | 0.643 | 0.782 | 0.597 | 0.53 | 1.07 | 1.08 | 0.987 | 0.546 | 0.35 | 0.919 | 0.901 | 0.984 | 0.87 | 0.075 | 0.916 | 0.941 | 0.92 | 0.966 | 0.775
7 | NCI-H1993 | 0.778 | 0.964 | 0.806 | 0.597 | 0.5 | 0.945 | 0.867 | 1.13 | 0.589 | 0.762 | 0.951 | 0.789 | 1.03 | 1.07 | 0.919 | 0.994 | 0.922 | 0.663 | 0.709 | 0.941 | 0.916 | 0.764 | 0.655 | 0.519 | 0.84 | 0.932 | 0.967 | 0.717 | 0.439 | 0.822 | 0.824 | 0.816 | 0.969 | 0.912
8 | NCI-H2009 | 0.955 | 1 | 0.944 | 0.456 | 0.239 | 0.955 | 1 | 1.02 | 0.994 | 0.91 | 1.01 | 0.93 | 1.08 | 0.943 | 0.96 | 0.645 | 0.574 | 0.297 | 0.313 | 1.01 | 1.01 | 0.997 | 0.724 | 0.398 | 0.995 | 0.939 | 0.923 | 0.24 | 0.0296 | 0.997 | 0.985 | 1.01 | 0.909 | 0.926
9 | NCI-H2023 | 0.846 | 0.547 | 0.147 | 0.12 | 0.0751 | 0.966 | 0.951 | 0.927 | 0.847 | 0.923 | 1.32 | 0.794 | 1.06 | 0.939 | 0.893 | 0.665 | 0.439 | 0.243 | 0.207 | 0.542 | 0.282 | 0.172 | 0.107 | 0.0892 | 0.926 | 0.836 | 0.91 | 0.0969 | 0.0098 | 0.993 | 0.961 | 0.82 | 0.858 | 0.778
